Measurements taken from BindingDB's records for doi:10.1021/jm000023o (Cocensys, 2000).

Assays:
[1] = Concentration required for 50% Inhibition of responses at cloned NR1A/2AB N-methyl-D-aspartate (NMDA) expressed in Xenopus oocytes
[2] = as above; remark: listed apart in the source

SMILES	IC50 [1]	IC50 [2]
Oc1ccc(C#CCN2CCC(Cc3ccccc3)CC2)cc1 [4-[3-(4-Benzyl-piperidin-1-yl)-prop-1-ynyl]-phenol]	0.1 µM	–
C(#Cc1ccc2cc[nH]c2c1)CCN1CCC(Cc2ccccc2)CC1 [6-[4-(4-Benzyl-piperidin-1-yl)-but-1-ynyl]-1H-indole]	–	6.1 µM
